Values belong to the compound of their own block, whether it stands above or below them. Activity calls are given as the source filed them. The calls are words filed in the database; no cut-off is given here.
Key:
LNCaP [1] = assay: Cytotoxicity against AR-positive human LNCaP cells assessed as inhibition of cell growth incubated for 5 days in presence of AR agonist, R1881 in charcoal stripped serum by WST-1 assay; type: functional, cell-based; details: 120 h
CWR22R [2] = assay: Cytotoxicity against human 22Rv1 cells assessed as inhibition of cell growth incubated for 5 days in presence of AR agonist, R1881 by WST-1 assay; type: functional, cell-based; details: 22Rv1, 120 h
[3] = system: Androgen receptor (Homo sapiens), P10275 [UNDEFINED MUTATION]; assay: Induction of AR-V7 degradation in human 22Rv1 cells at 100 nM by Western blot analysis; type: cell-based; details: time <= 48.0 hrs, TDE = time-dependent effect
Sequence of Androgen receptor (Homo sapiens), P10275 [UNDEFINED MUTATION] (P10275 whole entry, looked up, stated change not applied): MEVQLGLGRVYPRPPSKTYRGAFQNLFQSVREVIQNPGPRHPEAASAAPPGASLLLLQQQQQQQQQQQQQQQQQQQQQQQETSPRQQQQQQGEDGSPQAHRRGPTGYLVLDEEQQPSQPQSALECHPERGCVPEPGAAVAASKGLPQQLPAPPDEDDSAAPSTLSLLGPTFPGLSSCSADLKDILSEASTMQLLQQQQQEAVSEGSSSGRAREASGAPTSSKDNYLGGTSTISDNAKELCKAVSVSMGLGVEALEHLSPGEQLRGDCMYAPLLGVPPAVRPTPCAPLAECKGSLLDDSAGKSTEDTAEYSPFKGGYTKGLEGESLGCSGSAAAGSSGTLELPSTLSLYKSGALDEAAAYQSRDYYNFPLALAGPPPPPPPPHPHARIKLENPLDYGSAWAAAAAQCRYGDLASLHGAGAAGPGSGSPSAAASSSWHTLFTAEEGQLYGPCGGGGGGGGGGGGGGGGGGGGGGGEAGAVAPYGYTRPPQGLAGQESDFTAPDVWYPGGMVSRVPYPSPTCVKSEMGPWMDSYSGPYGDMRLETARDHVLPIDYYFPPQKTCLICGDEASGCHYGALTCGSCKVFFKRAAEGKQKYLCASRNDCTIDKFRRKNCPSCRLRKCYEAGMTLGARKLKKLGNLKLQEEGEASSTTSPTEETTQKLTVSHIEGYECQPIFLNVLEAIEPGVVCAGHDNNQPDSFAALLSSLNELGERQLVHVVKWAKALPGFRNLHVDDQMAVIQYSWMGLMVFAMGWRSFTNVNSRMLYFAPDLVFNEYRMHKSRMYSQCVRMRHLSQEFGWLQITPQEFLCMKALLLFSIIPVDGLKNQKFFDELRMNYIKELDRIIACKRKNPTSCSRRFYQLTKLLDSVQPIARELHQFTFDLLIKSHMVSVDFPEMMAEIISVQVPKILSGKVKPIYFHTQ

CWR22R [4] = assay: Antitumor activity against human 22Rv1 cells xenografted in BALB/c nude mouse assessed as reduction in tumor growth at 5 mg/kg, ip administered once every 4th day for 3 weeks; type: functional, organism-based
[5] = Drug uptake in human RWPE-1 cells assessed as drug internalization at 1 uM incubated for 1 hr by DAPI staining based confocal microscopy; type: ADME, cell-based; details: rwpe-1, 1 h
[6] = Drug uptake in HEK293T cells assessed as drug internalization at 1 uM incubated for 1 hr by DAPI staining based confocal microscopy; type: ADME, cell-based; details: human, hek-293t
[7] = Drug uptake in human 22Rv1 cells assessed as drug internalization at 1 uM incubated for 1 hr by DAPI staining based confocal microscopy; type: ADME, cell-based; details: cwr22r
[8] = Drug uptake in tumor of nude mouse xenografted with human 22Rv1 cells assessed as increase in fluorescence signal at 0.5 mg/kg, iv measured after 2 hrs by fluorescence imaging analysis; type: ADME, organism-based, Neoplasm, CWR22R; details: in vivo
[9] = Drug uptake in kidney of nude mouse xenografted with human 22Rv1 cells assessed as increase in fluorescence signal at 0.5 mg/kg, iv measured after 2 hrs by fluorescence imaging analysis; type: ADME, organism-based, CWR22R; details: in vivo
[10] = Drug uptake in liver of nude mouse xenografted with human 22Rv1 cells assessed as increase in fluorescence signal at 0.5 mg/kg, iv measured after 2 hrs by fluorescence imaging analysis; type: ADME, organism-based, CWR22R; details: in vivo
[11] = Drug uptake in Lung of nude mouse xenografted with human 22Rv1 cells assessed as increase in fluorescence signal at 0.5 mg/kg, iv measured after 2 hrs by fluorescence imaging analysis; type: ADME, organism-based, CWR22R; details: in vivo
LNCaP [12] = assay: Induction of apoptosis in human LNCaP cells assessed as increase in caspase-3 level at 1 uM measured after 48 hrs by Western blot analysis; type: functional, cell-based
LNCaP [13] = assay: Induction of apoptosis in human LNCaP cells assessed as increase in PARP level at 1 uM measured after 48 hrs by Western blot analysis; type: functional, cell-based
CWR22R [14] = assay: Induction of apoptosis in human 22Rv1 cells assessed as increase in caspase-3 level at 1 uM measured after 48 hrs by Western blot analysis; type: functional, cell-based
CWR22R [15] = assay: Induction of apoptosis in human 22Rv1 cells assessed as increase in PARP level at 1 uM measured after 48 hrs by Western blot analysis; type: functional, cell-based
CWR22R [16] = assay: Antitumor activity against human 22Rv1 cells xenografted in BALB/c nude mouse assessed as reduction in tumor size at 5 mg/kg, ip administered once every 4th day for 3 weeks; type: functional, organism-based
[17] = Drug uptake in human RWPE-1 cells assessed as increase in fluorescence at 1 uM incubated for 1 hr by DAPI staining based confocal microscopy; type: ADME, cell-based; details: rwpe-1, 1 h
[18] = Drug uptake in human HEK293T cells assessed as increase in fluorescence at 1 uM incubated for 1 hr by DAPI staining based confocal microscopy; type: ADME, cell-based; details: hek-293t
[19] = Drug uptake in human 22Rv1 cells assessed as increase in fluorescence at 1 uM incubated for 1 hr by DAPI staining based confocal microscopy; type: ADME, cell-based; details: cwr22r
[20] = system: Androgen receptor (Homo sapiens), P10275 [UNDEFINED MUTATION]; assay: Induction of AR-V7 degradation in human 22Rv1 cells measured upto 24 hrs by Western blot analysis; type: cell-based; details: dose 1000.0 nM
CWR22R [21] = assay: Antitumor activity against human 22Rv1 cells xenografted in BALB/c nude mouse assessed as downregulation of AR-FL level at 2.5 mg/kg, ip administered once every 4th day for 3 weeks; type: functional, organism-based
CWR22R [22] = assay: Antitumor activity against human 22Rv1 cells xenografted in BALB/c nude mouse assessed as downregulation of AR-V7 level at 2.5 mg/kg, ip administered once every 4th day for 3 weeks; type: functional, organism-based

SMILES: CC(C)c1cc(-c2n[nH]c(=O)n2-c2ccc(CN3CCN(CC4CCN(c5ccc(C(=O)N[C@H]6CC[C@H](Oc7ccc(C#N)c(Cl)c7)CC6)cn5)CC4)CC3)cc2)c(O)cc1O
IC50 (LNCaP [1]): 0.11 µM
IC50 (CWR22R [2]): 0.0459 µM

SMILES: CC(C)c1cc(-c2n[nH]c(=O)n2-c2ccc(CN3CCN(CC4CCN(c5ncc(C(=O)N[C@H]6CC[C@H](Oc7ccc(C#N)c(C(F)(F)F)c7)CC6)cn5)CC4)CC3)cc2)c(O)cc1O
IC50 (LNCaP [1]): 0.267 µM
IC50 (CWR22R [2]): 0.0899 µM

SMILES: CC(C)c1cc(-c2n[nH]c(=O)n2-c2ccc(CN3CCN(CC4CCN(C(=O)c5ccc(C(=O)N[C@H]6CC[C@H](Oc7ccc(C#N)c(Cl)c7)CC6)cc5)CC4)CC3)cc2)c(O)cc1O
IC50 (LNCaP [1]): 0.112 µM
IC50 (CWR22R [2]): 0.0655 µM

Activity [3]: Tde
SMILES: COc1cc(OC)c(C(C)C)cc1-c1nn(C)c(=O)n1-c1ccc(CN2CCN(CC3CCN(CC4CCN(c5ncc(C(=O)N[C@H]6CC[C@H](Oc7ccc(C#N)c(Cl)c7)CC6)cn5)CC4)CC3)CC2)cc1
IC50 (LNCaP [1]): > 1 µM
IC50 (CWR22R [2]): > 1 µM
Activity (CWR22R [4]): Active

SMILES: CC(C)c1cc(-c2n[nH]c(=O)n2-c2ccc(CN3CCN(C(=O)CCCCCNC(=O)c4ccc(C(=O)N[C@H]5CC[C@H](Oc6ccc(C#N)c(Cl)c6)CC5)cc4)CC3)cc2)c(O)cc1O
IC50 (LNCaP [1]): > 1 µM
IC50 (CWR22R [2]): > 1 µM

Drug uptake [5]: Not Active
Drug uptake [6]: Not Active
Drug uptake [7]: Active
Drug uptake [8]: Active
Drug uptake [9]: Not Active
Drug uptake [10]: Not Active
Drug uptake [11]: Not Active
SMILES: CC(C)c1cc(-c2n[nH]c(=O)n2-c2ccc(CN3CCN(C(=O)CCCCCN4/C(=C/C=C/C=C/C5=[N+](C)c6ccccc6C5(C)C)C(C)(C)c5ccccc54)CC3)cc2)c(O)cc1O

SMILES: CC(C)c1cc(-c2n[nH]c(=O)n2-c2ccc(CN3CCN(C(=O)CCCCCCNC(=O)c4ccc(C(=O)N[C@H]5CC[C@H](Oc6ccc(C#N)c(Cl)c6)CC5)cc4)CC3)cc2)c(O)cc1O
IC50 (LNCaP [1]): > 1 µM
IC50 (CWR22R [2]): > 1 µM

SMILES: N#Cc1ccc(O[C@H]2CC[C@H](NC(=O)c3cncnc3)CC2)cc1Cl
IC50 (LNCaP [1]): 0.153 µM
Activity (LNCaP [12]): inactive
Activity (LNCaP [13]): inactive
Activity (CWR22R [14]): inactive
Activity (CWR22R [15]): inactive

SMILES: N#Cc1ccc(O[C@H]2CC[C@H](NC(=O)c3cccnn3)CC2)cc1Cl
IC50 (LNCaP [1]): 0.336 µM
Activity (LNCaP [12]): inactive
Activity (LNCaP [13]): inactive
Activity (CWR22R [14]): inactive
Activity (CWR22R [15]): inactive

SMILES: CC(C)c1cc(-c2n[nH]c(=O)n2-c2ccc(CN3CCN(C(=O)CCCNC(=O)c4ccc(C(=O)N[C@H]5CC[C@H](Oc6ccc(C#N)c(Cl)c6)CC5)cc4)CC3)cc2)c(O)cc1O
IC50 (LNCaP [1]): > 1 µM
IC50 (CWR22R [2]): > 1 µM

SMILES: CC(C)c1cc(-c2n[nH]c(=O)n2-c2ccc(CN3CCN(CC4CCN(c5ncc(C(=O)N[C@H]6CC[C@H](Oc7ccc(C#N)c(Cl)c7)CC6)cn5)CC4)CC3)cc2)c(O)cc1O
IC50 (LNCaP [1]): 0.0738 µM
IC50 (CWR22R [2]): 0.0343 µM
Activity (CWR22R [16]): Active

Drug uptake [17]: Not Active
Drug uptake [18]: Not Active
Drug uptake [19]: Not Active
Activity [3]: Tde
Activity [20]: Dose-Dependent Effect
SMILES: CC(C)c1cc(-c2n[nH]c(=O)n2-c2ccc(CN3CCN(C)CC3)cc2)c(O)cc1O
IC50 (LNCaP [1]): 0.107 µM
Activity (CWR22R [21]): inactive
Activity (CWR22R [22]): inactive

SMILES: CC(C)c1cc(-c2n[nH]c(=O)n2-c2ccc(CN3CCN(CC4CCN(c5ncc(C(=O)N[C@H]6C(C)(C)[C@H](Oc7ccc(C#N)c(Cl)c7)C6(C)C)cn5)CC4)CC3)cc2)c(O)cc1O
IC50 (LNCaP [1]): 0.188 µM
IC50 (CWR22R [2]): 0.212 µM

Reference: ChEMBL document CHEMBL5380834, “Design, Synthesis, and Biological Evaluation of Androgen Receptor (AR) Antagonist-Heat Shock Protein 90 (Hsp90) Inhibitor Conjugates for Targeted Therapy of Castration-Resistant Prostate Cancer” (J Med Chem, 2023)
